Data from patent US20220387604A1, “SELECTIVE DUAL HISTONE DEACETYLASE 6/8 (HDAC6/8) DEGRADERS AND METHODS OF USE THEREOF” (DANA-FARBER CANCER INSTITUTE, INC., priority 2019, published 2022).
Entries after “also recorded” stand apart in the source; their conditions may differ.

How the values were obtained:
Type in all cases: biochemical
[1] = target: T1, HDAC9 (Homo sapiens, UniProt Q9UKV0); assay: HDAC enzymatic assay (Reaction Biology), HDAC9; conditions: summary of Table 1
T1 construct: purchased Reaction Biology
T1 sequence (Q9UKV0 whole entry): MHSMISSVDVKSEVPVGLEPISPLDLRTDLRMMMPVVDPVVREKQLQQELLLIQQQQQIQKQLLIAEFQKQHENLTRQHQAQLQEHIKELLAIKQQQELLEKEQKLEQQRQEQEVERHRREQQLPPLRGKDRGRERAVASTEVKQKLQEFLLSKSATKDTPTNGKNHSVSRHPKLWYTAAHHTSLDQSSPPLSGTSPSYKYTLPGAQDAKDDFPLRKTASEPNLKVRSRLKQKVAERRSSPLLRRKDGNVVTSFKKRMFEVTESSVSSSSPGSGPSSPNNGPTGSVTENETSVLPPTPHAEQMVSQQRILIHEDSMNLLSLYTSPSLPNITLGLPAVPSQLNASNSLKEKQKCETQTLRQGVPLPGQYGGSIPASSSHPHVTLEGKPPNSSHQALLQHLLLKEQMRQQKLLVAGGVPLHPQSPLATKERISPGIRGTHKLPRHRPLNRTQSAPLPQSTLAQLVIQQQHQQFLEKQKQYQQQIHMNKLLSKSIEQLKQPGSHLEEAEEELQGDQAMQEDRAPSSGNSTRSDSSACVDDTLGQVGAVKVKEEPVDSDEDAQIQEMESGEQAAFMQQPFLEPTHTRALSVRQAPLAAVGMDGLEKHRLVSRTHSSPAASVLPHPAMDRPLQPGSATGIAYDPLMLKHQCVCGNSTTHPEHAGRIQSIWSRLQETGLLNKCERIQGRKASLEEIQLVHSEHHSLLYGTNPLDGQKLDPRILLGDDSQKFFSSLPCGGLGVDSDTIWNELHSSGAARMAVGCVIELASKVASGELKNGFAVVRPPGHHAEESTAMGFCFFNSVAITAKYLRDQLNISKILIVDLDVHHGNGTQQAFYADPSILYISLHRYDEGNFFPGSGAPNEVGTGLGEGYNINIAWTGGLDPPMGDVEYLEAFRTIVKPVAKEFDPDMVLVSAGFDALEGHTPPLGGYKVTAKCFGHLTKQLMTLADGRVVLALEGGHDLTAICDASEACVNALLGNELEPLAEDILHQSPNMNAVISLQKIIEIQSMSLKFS
Experimental: (§1) Compound 1 was tested in an enzymatic assay from Reaction Biology® against 10 HDAC isoforms. The IC50 values were derived from a 10-dose response curve.
(§2) Base Reaction buffer: 50 mM Tris-HCl, pH8.0, 137 mM NaCl, 2.7 mM KCl, and 1 mM MgCl2, Add fresh: 1 mg/ml BSA, 1% DMSO
(§3) Class2A Substrate (HDAC4, HDAC5, HDAC7, and HDAC9): Boc-Lys(trifluoroacetyl)-AMC
(§4) 1. Delivered 2× enzyme in wells of reaction plate except in the control wells and added buffer to control wells. 2. Delivered compounds in 100% DMSO into the enzyme mixture by Acoustic technology (Echo550; nanoliter range). Spin down and pre-incubation. 3. Delivered 2× Substrate Mixture (Fluorogenic HDAC Substrate and co-factor if applicable) in all reaction wells to initiate the reaction. Spin and shake. 4. Incubated for 30 min for Class 2A, 1 h for HDAC1, 2, 3, and 6, and 2 h for the rest of HDAC isoforms and SIRTs at 30° C. with seal.
(§5) 5. Added Developer with Trichostatin A (or Nicotinamide for SIRTs) to stop the reaction and to generate fluorescent color. 6. The fluorescence that was generated was detected with excitation (Ex) at […] and emission (Em) at 460 nM by the EnVision Multilabel Plate Reader (PerkinElmer®, Santa Clara, Calif., USA).
(§6) IC50 values were derived from a 10-dose response curve.

[2] = target: T2, HDAC3 (Homo sapiens, UniProt O15379); assay: HDAC enzymatic assay (Reaction Biology), HDAC3
T2 construct: purchased Reaction Biology
T2 sequence (O15379 whole entry): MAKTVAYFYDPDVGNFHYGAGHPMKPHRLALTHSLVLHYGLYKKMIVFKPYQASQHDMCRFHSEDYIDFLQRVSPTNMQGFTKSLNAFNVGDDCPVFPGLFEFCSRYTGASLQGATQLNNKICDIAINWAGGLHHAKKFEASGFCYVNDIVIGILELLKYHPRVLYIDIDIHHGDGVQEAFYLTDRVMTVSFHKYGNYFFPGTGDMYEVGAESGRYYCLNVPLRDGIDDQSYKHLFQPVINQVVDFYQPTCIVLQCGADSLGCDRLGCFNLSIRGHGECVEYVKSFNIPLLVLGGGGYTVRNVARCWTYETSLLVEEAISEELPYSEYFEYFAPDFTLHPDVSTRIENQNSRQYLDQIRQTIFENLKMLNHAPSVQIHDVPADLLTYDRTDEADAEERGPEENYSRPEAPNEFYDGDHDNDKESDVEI
T2 sequence (Q9Y618 395-489 partner limits assumed): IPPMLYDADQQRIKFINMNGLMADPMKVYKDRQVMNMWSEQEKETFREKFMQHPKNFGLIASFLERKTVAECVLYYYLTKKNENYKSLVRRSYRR
Experimental: as §1, §2
Fluorogenic HDAC General Substrate (HDAC1, HDAC2, HDAC3, HDAC6, HDAC10, and HDAC11): 50 μM, Arg-His-Lys-Lys(Ac)-AMC
as §4, §5, §6

[3] = target: T3, HDAC7 (Homo sapiens, UniProt Q8WUI4); assay: HDAC enzymatic assay (Reaction Biology), HDAC7; conditions: summary of Table 1
T3 construct: purchased Reaction Biology
T3 sequence (Q8WUI4 1-952): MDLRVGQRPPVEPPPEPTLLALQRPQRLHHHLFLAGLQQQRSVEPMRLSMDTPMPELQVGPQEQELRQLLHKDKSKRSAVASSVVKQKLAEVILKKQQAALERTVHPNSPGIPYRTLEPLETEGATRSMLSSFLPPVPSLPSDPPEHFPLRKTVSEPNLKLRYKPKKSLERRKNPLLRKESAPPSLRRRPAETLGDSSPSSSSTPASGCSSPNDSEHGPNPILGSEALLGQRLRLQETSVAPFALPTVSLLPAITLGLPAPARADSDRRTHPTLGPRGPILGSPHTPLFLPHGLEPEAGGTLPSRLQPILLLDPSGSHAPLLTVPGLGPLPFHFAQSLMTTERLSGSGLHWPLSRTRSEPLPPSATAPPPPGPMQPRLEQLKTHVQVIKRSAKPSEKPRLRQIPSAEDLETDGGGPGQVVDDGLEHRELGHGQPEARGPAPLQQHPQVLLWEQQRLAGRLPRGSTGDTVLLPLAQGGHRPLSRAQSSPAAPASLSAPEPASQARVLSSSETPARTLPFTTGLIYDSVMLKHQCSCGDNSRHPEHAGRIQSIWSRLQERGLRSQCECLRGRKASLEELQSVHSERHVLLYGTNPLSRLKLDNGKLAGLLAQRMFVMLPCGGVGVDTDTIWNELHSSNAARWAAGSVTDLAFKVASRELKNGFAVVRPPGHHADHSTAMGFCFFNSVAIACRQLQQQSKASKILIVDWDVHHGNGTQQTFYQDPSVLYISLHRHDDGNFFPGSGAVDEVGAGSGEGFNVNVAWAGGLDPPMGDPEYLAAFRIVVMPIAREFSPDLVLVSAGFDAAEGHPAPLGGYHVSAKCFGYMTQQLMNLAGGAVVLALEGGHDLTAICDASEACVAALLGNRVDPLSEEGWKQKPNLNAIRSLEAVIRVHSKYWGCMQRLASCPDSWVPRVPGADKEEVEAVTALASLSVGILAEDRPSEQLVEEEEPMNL
Experimental: as §1, §2, §3, §4, §5, §6

[4] = target: T4, HDAC8 (Homo sapiens, UniProt Q9BY41); assay: HDAC enzymatic assay (Reaction Biology), HDAC8
T4 construct: purchased Reaction Biology
T4 sequence (Q9BY41 1-377): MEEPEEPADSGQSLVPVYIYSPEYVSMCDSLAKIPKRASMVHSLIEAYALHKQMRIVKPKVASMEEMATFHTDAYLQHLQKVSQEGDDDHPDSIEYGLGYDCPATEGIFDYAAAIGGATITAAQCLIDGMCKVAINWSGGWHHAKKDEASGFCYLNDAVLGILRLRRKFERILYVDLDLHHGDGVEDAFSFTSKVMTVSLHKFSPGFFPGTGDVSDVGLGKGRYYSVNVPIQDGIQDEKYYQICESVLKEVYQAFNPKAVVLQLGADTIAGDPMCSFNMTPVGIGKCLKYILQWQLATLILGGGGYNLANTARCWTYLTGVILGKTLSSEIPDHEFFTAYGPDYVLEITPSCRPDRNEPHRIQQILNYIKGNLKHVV
Experimental: as §1, §2
(HDAC8 only substrate: 50 μM, Arg-His-Lys(Ac)-Lys(Ac))-AMC
as §4, §5, §6

[5] = target: T5, HDAC5 (Homo sapiens, UniProt Q9UQL6); assay: HDAC enzymatic assay (Reaction Biology), HDAC5
T5 construct: purchased Reaction Biology
T5 sequence (Q9UQL6 whole entry): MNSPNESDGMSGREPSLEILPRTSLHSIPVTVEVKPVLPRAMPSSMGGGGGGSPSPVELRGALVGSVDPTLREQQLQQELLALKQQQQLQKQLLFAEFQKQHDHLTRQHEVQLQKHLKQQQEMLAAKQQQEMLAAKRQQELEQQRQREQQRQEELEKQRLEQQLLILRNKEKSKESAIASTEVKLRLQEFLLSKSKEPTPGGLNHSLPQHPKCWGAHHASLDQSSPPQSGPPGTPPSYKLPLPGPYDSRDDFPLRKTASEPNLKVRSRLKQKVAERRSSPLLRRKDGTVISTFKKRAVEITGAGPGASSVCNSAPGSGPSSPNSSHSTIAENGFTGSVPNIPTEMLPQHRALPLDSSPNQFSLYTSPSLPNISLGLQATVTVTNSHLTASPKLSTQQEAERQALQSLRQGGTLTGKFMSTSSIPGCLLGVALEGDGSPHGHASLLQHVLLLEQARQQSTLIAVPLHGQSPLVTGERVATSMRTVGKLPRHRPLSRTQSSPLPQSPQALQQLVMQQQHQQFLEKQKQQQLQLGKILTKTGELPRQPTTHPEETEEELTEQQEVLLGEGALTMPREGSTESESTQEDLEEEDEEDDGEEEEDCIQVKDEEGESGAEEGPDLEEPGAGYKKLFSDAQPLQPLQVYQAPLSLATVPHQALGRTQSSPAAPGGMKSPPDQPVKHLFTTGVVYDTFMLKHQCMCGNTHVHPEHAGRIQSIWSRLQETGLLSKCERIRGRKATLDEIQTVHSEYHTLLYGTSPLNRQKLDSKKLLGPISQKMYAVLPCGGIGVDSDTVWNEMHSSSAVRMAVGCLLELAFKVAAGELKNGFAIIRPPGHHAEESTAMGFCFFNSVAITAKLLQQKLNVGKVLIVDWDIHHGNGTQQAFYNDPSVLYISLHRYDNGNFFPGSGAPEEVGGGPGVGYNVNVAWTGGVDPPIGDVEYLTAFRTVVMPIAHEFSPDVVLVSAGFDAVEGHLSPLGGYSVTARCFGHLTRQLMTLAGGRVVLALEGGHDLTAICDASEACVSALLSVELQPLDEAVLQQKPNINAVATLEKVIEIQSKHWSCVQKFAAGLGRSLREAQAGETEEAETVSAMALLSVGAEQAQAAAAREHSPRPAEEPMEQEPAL
Experimental: as §1, §2, §3, §4, §5, §6

O=C(/C=C/c1ccc(CN(CCOCCOCCNc2cccc3c2C(=O)N(C2CCC(=O)NC2=O)C3=O)CCc2c[nH]c3ccccc23)cc1)NO (centres unmarked) [Compound 1, (E)-3-(4-(((2-(1H-indol-3-yl)ethyl)(2-(2-(2-((2-(2,6-dioxopiperidin-3-yl)-1,3-dioxoisoindolin-4-yl)amino)ethoxy)ethoxy)ethyl)amino)methyl)phenyl)-N-hydroxyacrylamide]
inhibition of enzymatic activity of HDAC9 (in words) [1]: did not inhibit | IC50 ([2]; 10-dose response curve, read-out: Compound IC50 (M), HDAC3): 1.29e-06 M | inhibition of enzymatic activity of HDAC3 (in words) ([2]; summary of Table 1): Moderate inhibition | inhibition of enzymatic activity of HDAC7 (in words) [3]: did not inhibit | IC50 ([4]; 10-dose response curve, read-out: Compound IC50 (M), HDAC8): 4.51e-06 M | inhibition of enzymatic activity of HDAC8 (in words) ([4]; summary of Table 1): potently inhibited; also recorded: Moderate inhibition | IC50 ([5]; 10-dose response curve, read-out: Compound IC50 (M), HDAC5): > 2e-05 M | inhibition of enzymatic activity of HDAC5 (in words) ([5]; summary of Table 1): did not inhibit
